ChEMBL document CHEMBL3102774, “Semisynthesis of salviandulin E analogues and their antitrypanosomal activity” (Bioorg Med Chem Lett, 2014)
Values after ≈ are worked out from the molar mass of the structure shown.

What was measured:
[1] = Selectivity index, ratio of IC50 for human MRC5 cells to IC50 for Trypanosoma brucei brucei GUTat 3.1; type: toxicity, cell-based; conditions: read-out: Ratio IC50
MRC5 = test: Cytotoxicity against human MRC5 cells; type: cell-based
[2] = test system: Trypanosoma brucei brucei; test: Antitrypanosomal activity against Trypanosoma brucei brucei GUTat 3.1 after 72 hrs by AlamarBlue assay; type: functional, organism-based; conditions: GUTat 3.1, 72 h

SMILES | selectivity ratio [1] | IC50 (MRC5) [µg/mL] | IC50 [2] [µg/mL]
CC(=O)OC1=CC2=C(C)C3=C(C=C[C@]24COC(=O)[C@@H]4C1)C(=O)O[C@H]3c1ccoc1 | 4.14 | 17.8 (≈ 45.1 µM) | 4.29 (≈ 10.9 µM)
CC1=C2C=CC[C@H]3C(=O)OC[C@@]23C=CC2=C1[C@H](c1ccoc1)OC2=O |  |  | > 12.5
CC1=C2C[C@@H](O)C[C@H]3C(=O)OC[C@@]23C=CC2=C1[C@H](c1ccoc1)OC2=O |  |  | > 12.5
Cc1ccc(C(=O)Nc2ccc(S(=O)(=O)O)c3cc(S(=O)(=O)O)cc(S(=O)(=O)O)c23)cc1NC(=O)c1cccc(NC(=O)Nc2cccc(C(=O)Nc3cc(C(=O)Nc4ccc(S(=O)(=O)O)c5cc(S(=O)(=O)O)cc(S(=O)(=O)O)c45)ccc3C)c2)c1 [SURAMIN] | > 63 | > 100 | 
CCCCNC(=O)O[C@H]1C=C2C(=O)OC[C@]23C=CC2=C(C(C)=C3C1)[C@H](c1ccoc1)OC2=O | 7.29 | 44.3 (≈ 98.1 µM) | 6.08 (≈ 13.5 µM)
CC(=O)O[C@H]1C=C2C(=O)OC[C@]23C=CC2=C(C(C)=C3C1)[C@H](c1ccoc1)OC2=O | 1.22 | 0.84 (≈ 2.13 µM) | 0.69 (≈ 1.75 µM)
CC1=C2C[C@@H](OC(=O)Nc3ccccc3)C=C3C(=O)OC[C@]32C=CC2=C1[C@H](c1ccoc1)OC2=O | 2.41 | 17.3 (≈ 36.6 µM) | 7.17 (≈ 15.2 µM)
CCC(=O)O[C@@H]1CC2=C(C)C3=C(C=C[C@]24COC(=O)[C@@H]4C1)C(=O)O[C@H]3c1ccoc1 | 11.9 | 63.5 (≈ 155 µM) | 5.33 (≈ 13 µM)
CC(=O)O[C@@H]1CC2=C(C)C3=C(C=C[C@]24COC(=O)[C@@H]4C1)C(=O)O[C@H]3c1ccoc1 | > 12.9 | > 100 | 7.73 (≈ 19.5 µM)
CCNC(=O)O[C@H]1C=C2C(=O)OC[C@]23C=CC2=C(C(C)=C3C1)[C@H](c1ccoc1)OC2=O | 0.9 | 0.18 (≈ 0.425 µM) | 0.2 (≈ 0.472 µM)
N=C(N)c1ccc(OCCCCCOc2ccc(C(=N)N)cc2)cc1 [PENTAMIDINE] | 3350 |  | 0.0017 (≈ 0.00499 µM)
CCCC(=O)OC1=CC2=C(C)C3=C(C=C[C@]24COC(=O)[C@@H]4C1)C(=O)O[C@H]3c1ccoc1 | 5.54 | 21.6 (≈ 51 µM) | 3.89 (≈ 9.21 µM)
CCNC(=O)O[C@@H]1CC2=C(C)C3=C(C=C[C@]24COC(=O)[C@@H]4C1)C(=O)O[C@H]3c1ccoc1 |  |  | > 12.5
CCC(=O)O[C@H]1C=C2C(=O)OC[C@]23C=CC2=C(C(C)=C3C1)[C@H](c1ccoc1)OC2=O | 0.59 | 1.41 (≈ 3.45 µM) | 2.39 (≈ 5.85 µM)
CCCC(=O)O[C@H]1C=C2C(=O)OC[C@]23C=CC2=C(C(C)=C3C1)[C@H](c1ccoc1)OC2=O | 1.01 | 1.05 (≈ 2.49 µM) | 1.04 (≈ 2.46 µM)
CC1=C2C[C@@H](OC(=O)Nc3ccccc3)C[C@H]3C(=O)OC[C@@]23C=CC2=C1[C@H](c1ccoc1)OC2=O | > 9.5 | > 100 | 10.5 (≈ 22.3 µM)
CCC(=O)OC1=CC2=C(C)C3=C(C=C[C@]24COC(=O)[C@@H]4C1)C(=O)O[C@H]3c1ccoc1 | 4.06 | 22.6 (≈ 55.3 µM) | 5.56 (≈ 13.6 µM)
COCO[C@H]1C=C2C(=O)OC[C@]23C=CC2=C(C(C)=C3C1)[C@H](c1ccoc1)OC2=O | 1.73 | 2 (≈ 5.05 µM) | 1.15 (≈ 2.9 µM)
CCCNC(=O)O[C@@H]1CC2=C(C)C3=C(C=C[C@]24COC(=O)[C@@H]4C1)C(=O)O[C@H]3c1ccoc1 | 8.51 | 66.2 (≈ 151 µM) | 7.77 (≈ 17.7 µM)
COCO[C@@H]1CC2=C(C)C3=C(C=C[C@]24COC(=O)[C@@H]4C1)C(=O)O[C@H]3c1ccoc1 |  |  | > 12.5
CCCC(=O)O[C@@H]1CC2=C(C)C3=C(C=C[C@]24COC(=O)[C@@H]4C1)C(=O)O[C@H]3c1ccoc1 | 1240 | 68 (≈ 160 µM) | 0.055 (≈ 0.13 µM)
CC1=C2C[C@@H](O)C=C3C(=O)OC[C@]32C=CC2=C1[C@H](c1ccoc1)OC2=O | 1.17 | 0.84 (≈ 2.38 µM) | 0.72 (≈ 2.04 µM)
NCCCC(N)(C(=O)O)C(F)F (stereo not given) [EFLORNITHINE] | > 44 | > 100 | 
CC1=C2CCC=C3C(=O)OC[C@]32CCC2=C1[C@H](c1ccoc1)OC2=O |  | 16.2 (≈ 47.8 µM) | > 12.5
